Holding throughout (assay type): cell-based
Test [1] deals with normal human keratinocytes. The experiment in a line: ROS detection with H2DCFDA probe in normal human keratinocytes. The note with it: 20 minutes. An excerpt:
• 1)—Background Information The aim of the present evaluation was to evaluate the antioxidant and antipollution effects of the extract HCR, against oxidative stress in normal human cultured keratinocytes extracted from abdominal plastic surgery (donor), using the H2DCFDA probe. […] It is cell-permeant and stable. When it penetrates the cell, acetate groups are cleaved by intracellular esterases. The resulting product is the dichlorodihydrofluorescein (or H2DCF), non-fluorescent. […] The probe oxidation is not specific of one type of ROS. The fluorescence is detected at wavelengths of 490 nm (excitation) and 525 nm (emission). […] A XTT assay was previously performed, to check the cells viability, in order to determine the concentrations to be tested, as described in Example 2. • 2)—Evaluation of Antioxidant Effect (H2DCFDA Probe) Normal human keratinocytes were seeded in 96-well microplates and are then treated with the test compound to be tested for 24 hours, before adding the fluorescent probe for detection of ROS and stimulating or not by the pollutant or hydrogen peroxide. This test is based on the use of a detection system, a probe, which is degraded and fluoresces on contact with ROS. […] After incubation, fluorescence was read at 490 nm (excitation) and 525 nm (emission) wavelengths (Tecan Safire II reader). Data are expressed as RFU (fluorescence units). […]

The subject of test [2] is mitochondria network of normal human fibroblasts (NHF). The experiment in a line: Mitochondrial network protection (MitoTracker staining) in UVA-irradiated fibroblasts. To be noted: 500 μM, positive control. The protocol:
b)-Normal human fibroblasts (NHF) extracted after plastic surgery from mammary skin dermis of a donor, were cultured as primary monolayers; a)-Fibroblasts were seeded into Petri dishes (at a cell density of 150,000 cells per dish, with a diameter of 60 mm, i.e. 7,700 NHF/cm^2), in the same medium as previously described (complete medium, i.e. with FBS), one day before treatment (incubation at 37° C.; 5% CO2). Each test compound concentration/dose (in one dish each) was then applied for 24 hours (in medium without sera; incubation at 37° C./5% CO2). […] b)-To evaluate the mitochondria staining, cells were incubated with a fluorescent probe (Invitrogen MitoTrackerTM). Cells were observed and photos were taken with x40 objective (Olympus […] microscope and […] Microvision software), with or without appropriate fluorescent filter. The photos allowed the visualization of the mitochondria network or of the whole cells, respectively. • 4)-Evaluation of the Effects on the Metabolic Activity (ATP & NAD^+/NADH Titrations)

For test [3], the system named is ATP production by normal human fibroblasts (NHF). The experiment in a line: ATP titration in fibroblasts, UVA-irradiated or not. The note with it: 500 μM. On the procedure: (§1) a)—In order to check the effects of UV and the tested product on cells metabolism, ATP and NAD^+/NADH titrations were performed. • (i)—Cells were seeded into 96-wells plates (at a cell density of 5,000 cells per well, i.e. 15,000 NHF/cm^2), in the same medium as previously described, one day before treatment. Then the treatment and irradiation timing was the same: first application for twenty-four hours (in medium without sera), then UVA-irradiation or not (same dose) and finally a second treatment for another twenty-four hours. As formerly, from the beginning to the end of the experiment, cells were incubated at 37° C./5% CO2. […] Measured quantity of this product (absorbance) is proportional to total NAD (NAD^+ and NADH) in each sample. • (v)—The ATP assay kit is an ATP monitoring system based on firefly (Photinus pyralis) luciferase. Added luciferase and D-luciferin react with ATP in samples to produce light, which measure (luminescence) is proportional to the ATP concentration. • b)—Raw data of both ATP and NAD^+/NADH titrations, i.e. luminescence units (RLU) or OD measurements obtained for respective standards, were plotted on graphics to determine standard curves. Then, the concentrations of ATP or NAD^+/NADH measured in the samples were determined. Quantitative values of each condition were averaged. […]

For test [4], the system named is Normal human fibroblasts (NHF). The experiment in a line: Autophagic activity (MDC assay) in fibroblasts irradiated with blue light. To be noted: for Decrease of autophagic activity of irradiated fibroblast cells: irradiated at 453 nanometers. The protocol:
• 1)—Background Information The purpose of the study is to evaluate effects of one HCR extracts on autophagic activities of in fibroblast irradiated with 453 nanometers blue light. The cells (normal human fibroblasts or (NHF)) are cultured as primary monolayer. Product to be tested is applied during 24 hours before irradiation and the n the product to be tested is applied during 24 hours . then autophagic activity is measured (MDC). Lysosomes are cytoplasmic organelles that permit recycling of cellular materials that have exceeded their lifetime or are otherwise no longer useful. Their main function is to digest endogeneous or exogeneous substrates (so called autophagy) in eukaryotic cells. Lysosomes break down cellular waste products, fats, carbohydrates, proteins, and other macromolecules into small compounds, which are transferred back into the cytoplasm as new cell-building materials. Indeed, its lipid membrane contains many enzymes, proton pumps and transport proteins. Acid pH is regulated to allow optimum activities of acid hydrolases [1]-[2]. The fluorescent LysoTracker probe is structured to easily insert in living cells (a fluorophore is linked to a weak base that is only partially protonated at neutral pH). This characteristic permits to this labeling/staining to be very selective for acid organelles i.e. the lysosomes. Then, effects of radiations, like blue light for instance, at lysosomal level can be evaluated. Indeed, these radiations lead to free radical formation and affect the normal lysosomes network, its distribution in the cell space. This can be visualized with specific fluorescent probe LysoTracker. Autophagy is an eukaryotic cell process that allow cytoplasmic materials digestion in a vacuole that fuses with the lysosome. Indeed, lysosomes can directly incorporate cytoplasmic fragments (micro-autophagy), or via autophagic vacuoles, named autophagosomes (macro-autophagy, fusion of lysosome and autophagosome is so called autolysosome). Autophagy is an important mechanism that allows the cell to mobilize its energy stocks to defend and destroy its damaged organelles and then avoid serious effects. This process permits elimination and replacement of proteins and non-functional organelles, then to ensure homeostasis. It is an essential cytoprotective mechanism that allows adaptive cell responses to different kinds of stress or damages, as nutritive privation (starvation). So it is necessary to cell survival, but also to other fundamental physiologic phenomena as development, immunity, cell differentiation (including keratinocytes differentiation to corneocytes in the epidermis). It is involved in longevity control, aging, and development of pathologies as cancer or diabetes, infectious, metabolic, or neuro-degenerative diseases. […] Three concentrations of the extract HCR are tested (weight/volume % of dry extract or DE, as it is a liquid extract), each dose being evaluated as quintuplicate (5 wells). Irradiation dose of 453 nm blue light is 40 J/cm^2 (23 mW/cm^2 for 29 minutes). b)—Cells are seeded into 96-wells microplates (at a cell density of 10,000 cells per well, i.e. 30,000 NHF/cm2), 24 hours before treatment (incubation at 37° C./5% CO2). […] Fibroblasts are then treated again with the product (curative effect) for another 24 h (so the total application is 48 h). Cells are seeded in complete medium: Dulbecco's modified Eagle medium or DMEM (Gibco 41966), with antibiotics (Gibco 15140) and 10% of foetal bovine serum or FBS (Gibco 10270). Treatments are done in medium without FBS. Irradiation is done in PBS (phosphate buffer saline). All incubation/treatment times are at 37° C./5% CO2 (except irradiation, done at room temperature). At the end of treatment, wells are delicately rinsed (PBS) and 0.05 mM MDC probe is applied on cells (Sigma 30432) (37° C./5% CO2). After incubation during 30 minutes and washes, fluorescence is measured at 380 nm (excitation) and 525 nm (emission) wavelengths (Tecan Safire II machine). […]

For test [5], the system named is lysosomes network of normal human fibroblasts (NHF). Kind of test: Lysosomal network protection (LysoTracker staining) in UVA-irradiated fibroblasts. The note with it: 500 μM. The protocol: b)-Normal human fibroblasts (NHF) extracted after plastic surgery from mammary skin dermis of a donor, were cultured as primary monolayers; a)-Fibroblasts seeding was carried out as described in Example 2. b)-Cells were then incubated with a fluorescent probe (Invitrogen LysoTrackerTM). They were observed and photographed with x40 objective (Olympus CK40 microscope and […] Microvision software), with or without appropriate fluorescent filter. The photos allowed the visualization respectively of the lysosomes network or of the whole cells. c)-Fluorescence was quantified with Colombus software, by HCS Pharma (Rennes, France), as mean intensity (3 images for each condition). It is the mean value of intensity for each pixel of staining, contained in the cell area stained with LysoTracker (number of cells of each image is taken into account, as the final value is the mean of all cells values on the image). • 4)-Results

Test [6] concerns NAD+/NADH production by normal human fibroblasts (NHF). The experiment in a line: NAD+/NADH titration in fibroblasts, UVA-irradiated or not. The note with it: Vitamin C 500 μM, UVA-irradiated. The protocol: as §1

For `c1ccc2c(c1)cc1ccc3cccc4ccc2c1c34` [BaP, benzo(a)pyrene], the “Stimulation of ROS production comparatively to non-stimulated acetone solvent control” value in test [1] (BaP 36 μM) was “+141%”.
For the compound `OO` [hydrogen peroxide], the “Stimulation of ROS production comparatively to unstimulated control” value in test [1] (hydrogen peroxide 1 mM) is on record as “+808%”.
Consider `O=C1O[C@H]([C@@H](O)CO)C(O)=C1O` [vitamin C, L-ascorbic acid], for which, in test [2], the “Protection of mitochondria network against UV (MitoTracker images)” value is reported as “effects of UVA were less distinct”. Besides, the “ATP synthesis, change compared to irradiated control” value in test [3] is listed as “+61%”. Also, the “RFU (means), MDC autophagic activity” value in test [4] (500 μMoles, irradiated (453 nanometers) NHF) is on record as 95 RFU; in test [4] (500 μMoles, non irradiated NHF), 60 ^(***^) RFU. In addition, the “Decrease of autophagic activity of irradiated fibroblast cells” value in test [4] (vitamin C) is recorded as 14%. Further, in test [5] (highly significant), the “LysoTracker fluorescence mean intensity” value is on record as “higher”. In addition, in test [5] (positive control), the “Protection of lysosomes network against UV (LysoTracker images)” value is “diminished the effects of UVA”. The “NAD+/NADH release by UV-irradiated cells” value in test [6] is recorded as “did not show expected positive effect”.
For `CC(=O)Oc1c(C)c(C)c2c(c1C)CCC(C)(CCC[C@H](C)CCC[C@H](C)CCCC(C)C)O2` (stereo partly drawn) [vitamin E, α-tocopherol acetate], the “RFU (means), MDC autophagic activity” value in test [4] (200 μMoles, irradiated (453 nanometers) NHF) is listed as 86 ^(*^) RFU; in test [4] (200 μMoles, non irradiated NHF), 76 ^(**^) RFU. For the same compound, the “Decrease of autophagic activity of irradiated fibroblast cells” value in test [4] (vitamin E) is reported as 22%.

Source of the values: patent US20210046143A1, “METHOD FOR TREATMENT OF THE HUMAN BODY BY THERAPY BY ADMINISTERING A COMPOSITION COMPRISING A PLANT EXTRACT OF THE SPECIE HEDYCHIUM CORONARIUM” (Societe D'exploitation De Produits Pour Les Industries …, priority 2016, published 2021).
